Measurements published in patent US8377651B2, “Method for detecting Escherichia coli” (Systagenix Wound Management (US), Inc., priority 2003, dated 2013).
Primed or numbered codes have the meaning given here. No end group written: not given here. *: point of attachment. Dabcyl″ = CN(C)c1ccc(/N=N/c2ccc(C(=O)*)cc2)cc1; EDANS = O=S(=O)(O)c1cccc2c(NCCN*)cccc12; Dabcyl′ = not defined here

How the values were obtained:
E. coli cultures = test: Biosensor: his-tagged peptide linked to nickel binding resin exposed to cultures; type: cell-based, Escherichia coli; conditions: E. coli cultures versus BHI media without bacteria
Experimental: Metal chelate (affinity binding) interactions can provide a stronger bond to biological molecules. A his-tag built into the peptide substrate, for example T4 can be used to allow linkage to a nickel binding resin. The resin is incubated with a suitable culture, for example, E. coli for 30 minutes at 37° C. After centrifugation the buffer is removed and the pelleted resin is imaged. The fluorescence produced by the peptide is then detected.

E. coli cells [1] = test: Protease assay, labeled peptide substrate with bacterial culture (cells and media); type: cell-based, Escherichia coli; conditions: for protease activity / cleavage of substrate (relative fluorescence): E. coli culture incl. cells and media, 20 mM tris pH 7.4, 150 mM NaCl, 37° C., ex 355 nm, em 485 nm, FIG. 1, 2
Experimental: (§1) The peptide substrates used here were labeled with the fluorescent probe edans (5((2-aminoethyl)amino)naphthalene-1-sulfonic acid) and the quencher dye molecule dabcyl ((4-(4-(dimethylamino)phenyl)azo)benzoic acid). The labeled peptides ecot1 (T1) and ecot2 (T2) sequences used are as follows:
(§2) The bacteria were grown in an incubator overnight at 37° C. in 5 mL BHT (Brain Heart Infusion) media. Each of the resulting cultures was split into two samples. One was used as a culture, and the other was spun down by centrifugation and the supernatant was collected. The assays were run in 20 mM tris buffer (pH 7.4) with 150 mM NaCl added. The reaction was carried out with 5 μL of culture or supernatant and 5 μL of peptide substrate (10 mg/mL in water) in 100 μL total volume at 37° C. The reaction was followed on a fluorimetric plate reader using an excitation wavelength of 355 nm and an emission wavelength of 485 nm.
(§3) The first set of experiments was performed by addition of the bacterial culture directly into the assay solution. The protease OmpT is a membrane bound protein and would not be expected to be found secreted into the media. The first assay to be run used the peptide ecot1(T1) as substrate.

[2] = test system: secreted protease from E. coli; test: Protease assay with bacterial culture supernatants; type: biochemical, Escherichia coli; conditions: for protease activity with culture supernatant: E. coli culture supernatant
Experimental: as §2
(§4) To test whether the protease is membrane associated, as expected for E. coli OmpT, the protease assays were repeated with the supernatants obtained from each bacterial culture.

[3] = test system: secreted protease from any of the other bacteria tested; test: Protease assay with bacterial culture supernatants; type: biochemical
Experimental: as §2, §4

E. coli [4] = test: Protease assay in reaction buffer with 5% fetal bovine serum; type: cell-based, Escherichia coli; conditions: buffer plus 5% fetal bovine serum; FIG. 3
Experimental: as §2
The 12 peptide substrate was further tested for cross reactivity with the types of conditions and molecules that may be present in a wound environment. A fluid that may be present in a wound, at least initially, is serum. In order to test for reactivity with serum the reaction buffer was modified to by addition 5% fetal bovine serum and the protease assay was repeated, using the 12 peptide substrate.

E. coli cells [5] = test: Protease assay in simulated wound fluid buffer (5% bovine serum albumin); type: cell-based, Escherichia coli; conditions: tris-buffered saline plus 5% (by weight) bovine serum albumin, FIG. 4
Experimental: as §2
The protease assay was also tested in a simulated wound fluid buffer. The buffer was tris-buffered saline, as described above, to which 5% (by weight) bovine serum albumin was added. The protease assay was repeated, again using the 12 peptide substrate.

Pseudomonas = test: Protease assay, labeled peptide substrate with bacterial culture (cells and media); type: cell-based; conditions: Pseudomonas culture incl. cells and media; 20 mM tris pH 7.4, 150 mM NaCl, 37° C.; FIG. 1
Experimental: as §1, §2, §3

[6] = test system: protease from Pseudomonas secreted into solution; test: Protease assay with bacterial culture supernatants; type: biochemical
Experimental: as §2, §4

E. coli [7] = test: Protease assay with modified (lysine-tagged) substrate and bacterial cultures; type: cell-based, Escherichia coli; conditions: cultures of Pseudomonas, S. aureus, S. epidermidis, S. salivarius, S. pyogenes, Enterococcus, Serratia, 37° C., FIG. 5
Experimental: The protease assay, described herein for detection of E. colt was run with the modified version of T2, T3. Bacteria (Pseudomonas, E. coli, S. aureus, S. epidermidis, S. salivarius, S. pyogenes, Enterococcus, and Serratia) were grown in an incubator overnight at 37° C. in 5 mL BHI (Brain Heart Infusion) media. The assays were run in 20 mM tris buffer (pH 7.4) with 150 mM NaCl added. The reaction was carried out with 7 μL of culture including cells and media and […] (5 mg/mT, in water) in 100 μL total volume at 37° C. The reaction was followed on a fluorimetric plate reader using an excitation wavelength of 355 nm and an emission wavelength of 485 nm.

## CHHHAS(E-edans)VSRRRRRGG(K-dabcyl) [T4]
E. coli cultures
  detection of E. coli by resin-bound peptide fluorescence: E. coli was detected

## Dabcyl - KVSRRRRRGGD - Edans [T2]
E. coli cells [1]
  protease activity / cleavage of substrate (relative fluorescence): reacted with this substrate
E. coli cells [1]; cultures of various bacteria incl. cells and media, FIG. 2
  selectivity of substrate among the bacteria tested: efficient and selective for E. coli
[2]
  protease activity with culture supernatant: did not show any reactivity
[2]; conclusion from culture versus supernatant assays
  selectivity for membrane bound protease OmpT: selective for the E. coli outer membrane protease OmpT
[3]
  reactivity with secreted protease, culture supernatants: did not show any reactivity
E. coli [4]
  detection of E. coli in presence of serum (cleavage, relative fluorescence): detection of the presence of E. coli in the E. coli sample occurred
E. coli cells [5]
  protease reactivity in simulated wound fluid: not affected by the simulated wound fluid buffer
E. coli cells [5]; various bacteria
  selectivity and speed as probe in simulated wound fluid: rapid and selective probe for the detection of E. coli cells

## Edans - DSRPVRRRRRPRVSK - Dabcyl (Edans-DSRPVRRRRRPRVSK-{Dabcyl′}) [T1]
E. coli cells [1]
  protease activity / cleavage of substrate (relative fluorescence): protease activity was observed
Pseudomonas
  protease activity / cleavage of substrate (relative fluorescence): protease activity was observed
[2]
  protease activity with culture supernatant: not present in the supernatant
[6]
  protease activity with culture supernatant: still present

## KKAS(E-edans)VSRRRRRGG(K-dabcyl) (chain 1 KKASE(EDANS); chain 2 VSRRRRRGGK(Dabcyl″); not fully specified; printed as KKAS(E-edans)VSRRRRRGG(K-dabcyl)) [T3]
E. coli [7]
  specificity of assay among bacteria (cleavage, relative fluorescence over time): specific for E. coli
